# Target: HiBiT-RR BRD4 (Homo sapiens, UniProt O60885)
# Assay: Kinetic degradation of HiBiT-RR BRD4 CRISPR knock-in in HEK293 cells
# Assay type: cell-based
compound,measurement,value
Cc1ncsc1-c1ccc(CNC(=O)[C@@H]2C[C@@H](O)CN2C(=O)[C@@H](NC(=O)COCCOCCOCCNC(=O)C[C@@H]2N=C(c3ccc(Cl)cc3)c3c(sc(C)c3C)-n3c(C)nnc32)C(C)(C)C)cc1 [MZ1],DC50 or Dmax difference HiBiT-KK vs HiBiT-RR BRD4,no significant DC50 or Dmax difference

# From paper PMC11318018 (ACS Medicinal Chemistry Letters, 2024)
